Data reported in ChEMBL document CHEMBL4229455, “Synthesis and anticancer activity of novel bisindolylhydroxymaleimide derivatives with potent GSK-3 kinase inhibition” (Bioorg Med Chem, 2018).
pIC50: −log10 of the molar value.

Key:
Sus scrofa domesticus = organism: Sus scrofa domesticus; assay: Inhibition of domestic porcine brain full length […] assessed as residual activity at 10 uM using RRKHAAIGSpAYSITA as substrate in presence of [gamma-33P]ATP
MCF7 = assay: Cytotoxicity against human MCF7 cells assessed as cell growth at 10 uM after 48 hrs by SRB assay relative to control; format: functional; settings: MCF7, 48 h, read-out: Activity
[1] = biological target: Cyclin-dependent kinase 5/CDK5 activator 1 (Homo sapiens) (UniProt Q00535+Q15078); assay: Inhibition of recombinant full length human CDK5/p25 expressed in bacteria assessed as residual activity at 10 uM using histone H1 as substrate in presence of [gamma-33P]ATP
HOP-62 = assay: Cytotoxicity against human HOP62 cells assessed as cell growth at 10 uM after 48 hrs by SRB assay relative to control; format: functional; settings: HOP-62, 48 h, read-out: Activity
MDA-MB-435 = assay: Cytotoxicity against human MDA-MB-435 cells assessed as cell growth at 10 uM after 48 hrs by SRB assay relative to control; format: functional; settings: MDA-MB-435, 48 h, read-out: Activity
[2] = biological target: Serine/threonine-protein kinase pim-1 (Homo sapiens, UniProt P11309); assay: Inhibition of recombinant full length human PIM1 expressed in bacteria using histone H1 as substrate in presence of [gamma-33P]ATP
Malme-3M = assay: Cytotoxicity against human MALME-3M cells assessed as cell growth at 10 uM after 48 hrs by SRB assay relative to control; format: functional; settings: read-out: Activity
COLO 205 = assay: Cytotoxicity against human COLO205 cells assessed as cell growth at 10 uM after 48 hrs by SRB assay relative to control; format: functional; settings: COLO 205, 48 h, read-out: Activity
SNB-75 = assay: Cytotoxicity against human SNB75 cells assessed as cell growth at 10 uM after 48 hrs by SRB assay relative to control; format: functional; settings: SNB-75, 48 h, read-out: Activity
NCI-H322M = assay: Cytotoxicity against human NCI-H322M cells assessed as cell growth at 10 uM after 48 hrs by SRB assay relative to control; format: functional; settings: read-out: Activity
PC-3 = assay: Cytotoxicity against human PC3 cells assessed as cell growth at 10 uM after 48 hrs by SRB assay relative to control; format: functional; settings: PC-3, 48 h, read-out: Activity
[3] = biological target: CDK9/cyclin T1 (Homo sapiens) (UniProt O60563+P50750); assay: Inhibition of recombinant full length human CDK9/cyclin T expressed in baculovirus infected Sf9 insect cells assessed as residual activity at 10 uM using YSPTSPSYSPTSPSYSPTSPSKKKK as substrate in presence of [gamma-33P]ATP
UO-31 = assay: Cytotoxicity against human UO31 cells assessed as cell growth at 10 uM after 48 hrs by SRB assay relative to control; format: functional; settings: UO-31, 48 h, read-out: Activity
[4] = biological target: Glycogen synthase kinase-3 (Sus scrofa) (UniProt B2LUN4+I6LNT8); assay: Inhibition of domestic porcine brain full length GSK-3alpha/beta assessed as residual activity at 10 uM using GS-1 as substrate in presence of [gamma-33P]ATP; settings: Sus scrofa domesticus
[5] = biological target: T1, Serine/threonine-protein kinase haspin (Homo sapiens, UniProt Q8TF76); assay: Inhibition of recombinant human haspin kinase domain expressed in bacteria using histone H3 (1 to 21 residues) peptide as substrate in presence of [gamma-33P]ATP
T1 sequence (Q8TF76 whole entry): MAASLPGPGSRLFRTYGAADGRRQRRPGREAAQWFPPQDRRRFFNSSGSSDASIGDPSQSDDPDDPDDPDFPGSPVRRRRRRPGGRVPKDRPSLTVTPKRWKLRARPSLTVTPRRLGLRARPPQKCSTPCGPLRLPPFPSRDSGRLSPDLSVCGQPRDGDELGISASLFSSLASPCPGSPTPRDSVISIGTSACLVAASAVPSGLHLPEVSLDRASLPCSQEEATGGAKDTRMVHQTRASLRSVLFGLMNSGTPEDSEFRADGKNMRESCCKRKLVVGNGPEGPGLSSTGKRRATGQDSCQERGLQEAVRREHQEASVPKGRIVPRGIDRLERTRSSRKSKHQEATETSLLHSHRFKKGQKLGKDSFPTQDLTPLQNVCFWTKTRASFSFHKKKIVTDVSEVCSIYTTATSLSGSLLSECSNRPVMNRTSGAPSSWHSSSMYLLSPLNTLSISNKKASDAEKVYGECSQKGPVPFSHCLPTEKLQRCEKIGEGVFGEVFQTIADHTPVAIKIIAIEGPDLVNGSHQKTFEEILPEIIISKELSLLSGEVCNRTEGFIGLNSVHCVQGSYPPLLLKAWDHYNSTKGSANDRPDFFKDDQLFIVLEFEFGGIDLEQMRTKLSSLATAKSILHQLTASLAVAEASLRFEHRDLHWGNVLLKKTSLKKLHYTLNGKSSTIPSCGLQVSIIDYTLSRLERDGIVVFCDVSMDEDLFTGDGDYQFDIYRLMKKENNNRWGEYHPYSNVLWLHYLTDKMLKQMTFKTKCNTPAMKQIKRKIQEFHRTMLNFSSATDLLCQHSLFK

786-0 = assay: Cytotoxicity against human 786-O cells assessed as cell growth at 10 uM after 48 hrs by SRB assay relative to control; format: functional; settings: 786-0, 48 h, read-out: Activity
[6] = biological target: Dual specificity tyrosine-phosphorylation-regulated kinase 1A (Rattus norvegicus, UniProt Q63470); assay: Inhibition of recombinant rat DYRK1A kinase domain expressed in bacteria using KKISGRLSPIMTEQ as substrate in presence of [gamma-33P]ATP
RPMI-8226 = assay: Cytotoxicity against human RPMI8226 cells assessed as cell growth at 10 uM after 48 hrs by SRB assay relative to control; format: functional; settings: RPMI-8226, 48 h, read-out: Activity
[7] = biological target: Cyclin-dependent kinase 5/CDK5 activator 1 (Homo sapiens, UniProt Q00535); assay: Inhibition of recombinant full length human CDK5/p25 expressed in bacteria using histone H1 as substrate in presence of [gamma-33P]ATP
[8] = biological target: T2, Serine/threonine-protein kinase haspin (Homo sapiens) (UniProt Q8TF76); assay: Inhibition of recombinant human haspin kinase domain expressed in bacteria assessed as residual activity at 10 uM using histone H3 (1 to 21 residues) peptide as substrate in presence of [gamma-33P]ATP
T2 sequence (whole entry): T1 sequence (Q8TF76 whole entry)

SF-295 = assay: Cytotoxicity against human SF295 cells assessed as cell growth at 10 uM after 48 hrs by SRB assay relative to control; format: functional; settings: SF-295, 48 h, read-out: Activity
K562 = assay: Cytotoxicity against human K562 cells assessed as cell growth at 10 uM after 48 hrs by SRB assay relative to control; format: functional; settings: K562, 48 h, read-out: Activity
HCC 2998 = assay: Cytotoxicity against human HCC2998 cells assessed as cell growth at 10 uM after 48 hrs by SRB assay relative to control; format: functional; settings: HCC 2998, 48 h, read-out: Activity

Chain of Cyclin-dependent kinase 5/CDK5 activator 1 (Q00535 whole entry, the tested form may be a part): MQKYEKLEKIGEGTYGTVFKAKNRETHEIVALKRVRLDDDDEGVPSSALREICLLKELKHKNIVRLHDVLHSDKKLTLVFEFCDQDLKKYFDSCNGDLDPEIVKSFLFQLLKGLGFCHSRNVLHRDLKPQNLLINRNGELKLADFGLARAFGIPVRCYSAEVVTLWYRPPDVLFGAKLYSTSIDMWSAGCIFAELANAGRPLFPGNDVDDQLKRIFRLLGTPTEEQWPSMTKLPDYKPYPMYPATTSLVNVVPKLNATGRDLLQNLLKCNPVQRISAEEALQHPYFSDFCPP
Chain of Cyclin-dependent kinase 5/CDK5 activator 1 (Q15078 whole entry, further chain, the tested form may be a part): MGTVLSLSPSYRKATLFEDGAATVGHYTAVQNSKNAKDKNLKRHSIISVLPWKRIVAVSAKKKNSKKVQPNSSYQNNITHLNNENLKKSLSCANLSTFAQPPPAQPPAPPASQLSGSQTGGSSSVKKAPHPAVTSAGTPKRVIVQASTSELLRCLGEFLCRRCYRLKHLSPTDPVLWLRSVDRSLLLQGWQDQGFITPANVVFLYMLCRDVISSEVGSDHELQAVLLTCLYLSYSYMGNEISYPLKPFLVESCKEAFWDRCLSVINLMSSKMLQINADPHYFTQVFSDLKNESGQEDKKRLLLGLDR
Chain of Cyclin-dependent kinase 5/CDK5 activator 1 (Homo sapiens) (Q00535 whole entry): as the sequence (Q00535 whole entry, the tested form may be a part) above
Chain of Cyclin-dependent kinase 5/CDK5 activator 1 (Homo sapiens) (Q15078 99-307 partner limits assumed): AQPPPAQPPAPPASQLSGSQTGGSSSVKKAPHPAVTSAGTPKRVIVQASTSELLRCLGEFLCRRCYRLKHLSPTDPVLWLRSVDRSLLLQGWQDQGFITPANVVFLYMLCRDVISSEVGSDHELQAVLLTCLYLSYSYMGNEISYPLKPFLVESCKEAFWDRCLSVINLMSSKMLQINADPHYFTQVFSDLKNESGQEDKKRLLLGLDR
Chain of Serine/threonine-protein kinase pim-1 (P11309 whole entry): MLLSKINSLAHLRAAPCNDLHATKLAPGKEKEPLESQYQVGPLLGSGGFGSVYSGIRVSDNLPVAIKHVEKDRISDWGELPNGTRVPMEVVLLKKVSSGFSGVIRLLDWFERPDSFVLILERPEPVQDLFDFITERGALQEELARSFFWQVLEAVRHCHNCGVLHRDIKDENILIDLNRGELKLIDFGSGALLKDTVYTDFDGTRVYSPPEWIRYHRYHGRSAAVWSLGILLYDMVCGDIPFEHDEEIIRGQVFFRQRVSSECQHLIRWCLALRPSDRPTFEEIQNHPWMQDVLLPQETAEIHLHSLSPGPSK

SMILES: CC(C)n1cc(C2=C(c3cn(C)c4ccccc34)C(=O)N(O)C2=O)c2ccccc21
- Activity (Sus scrofa domesticus): 98%
- growth at 10 µM (MCF7): 91.6%
- Activity [1]: 34%
- growth at 10 µM (HOP-62): 84.6%
- growth at 10 µM (MDA-MB-435): 104%
- pIC50 [2]: < 5.00
- growth at 10 µM (Malme-3M): 89%
- growth at 10 µM (COLO 205): 101%
- growth at 10 µM (SNB-75): 84.9%
- growth at 10 µM (NCI-H322M): 91.7%
- growth at 10 µM (PC-3): 88.4%
- Activity [3]: -7%
- growth at 10 µM (UO-31): 56.4%
- Activity [4]: -16%
- pIC50 [5]: < 5.00
- growth at 10 µM (786-0): 86.5%
- pIC50 [6]: < 5.00
- growth at 10 µM (RPMI-8226): 68.3%
- pIC50 [7]: < 5.00
- Activity [8]: 127%
- growth at 10 µM (SF-295): 101%
- growth at 10 µM (K562): 77.7%
- growth at 10 µM (HCC 2998): 110%

SMILES: Cn1cc(C2=C(c3c[nH]c4ccccc34)C(=O)N(O)C2=O)c2ccccc21
- Activity (Sus scrofa domesticus): 40%
- growth at 10 µM (MCF7): 30.9%
- Activity [1]: 66%
- growth at 10 µM (HOP-62): 67.9%
- growth at 10 µM (MDA-MB-435): 17.1%
- pIC50 [2]: 5.30
- growth at 10 µM (Malme-3M): 68.7%
- growth at 10 µM (COLO 205): 86%
- growth at 10 µM (SNB-75): 72.5%
- growth at 10 µM (NCI-H322M): 81.9%
- growth at 10 µM (PC-3): 78.7%
- Activity [3]: 19%
- growth at 10 µM (UO-31): 40.5%
- Activity [4]: -18%
- pIC50 [5]: < 5.00
- growth at 10 µM (786-0): 82%
- pIC50 [6]: < 5.00
- growth at 10 µM (RPMI-8226): 51.7%
- pIC50 [7]: < 5.00
- Activity [8]: 112%
- growth at 10 µM (SF-295): 88.8%
- growth at 10 µM (K562): 50.2%
- growth at 10 µM (HCC 2998): 89.9%

SMILES: CC(C)n1cc(C2=C(c3c[nH]c4ccccc34)C(=O)N(O)C2=O)c2ccccc21
- Activity (Sus scrofa domesticus): 72%
- growth at 10 µM (MCF7): 77.1%
- Activity [1]: 71%
- growth at 10 µM (HOP-62): 98.6%
- growth at 10 µM (MDA-MB-435): 102%
- pIC50 [2]: < 5.00
- growth at 10 µM (Malme-3M): 102%
- growth at 10 µM (COLO 205): 98.5%
- growth at 10 µM (SNB-75): 82.6%
- growth at 10 µM (NCI-H322M): 103%
- growth at 10 µM (PC-3): 99.7%
- Activity [3]: 44%
- growth at 10 µM (UO-31): 67.9%
- Activity [4]: 2%
- pIC50 [5]: < 5.00
- growth at 10 µM (786-0): 77.9%
- pIC50 [6]: < 5.00
- growth at 10 µM (RPMI-8226): 56.9%
- pIC50 [7]: < 5.00
- Activity [8]: 123%
- growth at 10 µM (SF-295): 99.7%
- growth at 10 µM (K562): 86.3%
- growth at 10 µM (HCC 2998): 105%
